Assay results from patent US11753445B2, “Therapeutic peptides” (COHBAR, INC., priority 2016, dated 2023).

How the values were obtained:
[1] = tested on: Human Primary Adipocytes; experiment: Free fatty acid levels in cultured human primary adipocytes, isoproterenol stimulated (Example 4); type: cell-based; conditions: test peptides 25 μM; isoproterenol 1 nM
Summary of the method: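 Differentiated human primary adipocytes (14-24 days) pre-treated with peptides (25 μM final) 18-20 h plus 1 h, then stimulated 3 h at 37° C. with isoproterenol (1 nM) plus peptides. Media free fatty acids read colorimetrically (540 nm), background-corrected and expressed relative to isoproterenol-only cells.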

[2] = tested on: Diet Induced Obese (DIO) mice; experiment: Body weight, blood glucose and fat mass in Diet Induced Obese mice, 10 days (Example 6); type: in vivo, Male C57BL/6 mice; conditions: male DIO mice; 10 days twice daily intraperitoneal 15 mg/kg; N = 8; mean
Summary of the method: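 Male DIO mice (n=8/group), randomized by blood glucose and body weight, dosed 15 mg/kg/dose once or twice daily s.c. or i.p. for 10 days vs vehicle. Body weight, blood glucose and food intake monitored; fat vs lean mass by quantitative whole-body NMR before and after dosing.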

[3] = Stability in mouse plasma, peptides 100 uM (Example 14); type: in vitro ADME; conditions: mouse plasma 37° C., peptide 100 uM
Description: (§1) Peptides (100 uM) were incubated in pooled mouse plasma at 37° C. and samples were removed and immediately analyzed for the concentration of intact peptide by LC/MS/MS over the course of 3 hours. The percent of peptide remaining in plasma at each time point was calculated relative to the initial peak area (Table 12).

[4] = Stability in mouse plasma, peptides 10 uM (Example 15); type: in vitro ADME; conditions: mouse plasma 37° C., peptide 10 uM
Description: as §1, with “(10” for “(100”, “13).” for “12).”

[5] = Stability in monkey plasma (Example 16); type: in vitro ADME; conditions: Monkey plasma 37° C., peptide 10 uM
[6] = Stability in human plasma (Example 16); type: in vitro ADME; conditions: Human plasma 37° C., peptide 10 uM
Description: as §1, with “(10” for “(100”, “mouse or human” for “mouse”, “14).” for “12).”

[7] = pooled mouse plasma, 15 min, read-out: % Remaining at Each Time Point: 15 min
[8] = pooled mouse plasma, 30 min, read-out: % Remaining at Each Time Point: 30 min
[9] = pooled mouse plasma, 60 min, read-out: % Remaining at Each Time Point: 60 min
[10] = pooled mouse plasma, 120 min, read-out: % Remaining at Each Time Point: 120 min
[11] = pooled mouse plasma, 180 min, read-out: % Remaining at Each Time Point: 180 min

% Remaining at Each Time Point: 0 min ([3]; 0 min): 100%
remaining at 0.25 h, 100 uM [3, 7]: 56.2%
remaining at 0.5 h, 100 uM [3, 8]: 44.8%
remaining at 1 h, 100 uM [3, 9]: 39.6%
remaining at 2 h, 100 uM [3, 10]: 34.4%
remaining at 3 h, 100 uM [3, 11]: 41.4%
% Remaining at Each Time Point: 0 min ([4]; 0 min): 100%
remaining at 0.25 h, 10 uM [4, 7]: 85.7%
remaining at 0.5 h, 10 uM [4, 8]: 79.5%
remaining at 1 h, 10 uM [4, 9]: 61.9%
remaining at 2 h, 10 uM [4, 10]: 35.4%
remaining at 3 h, 10 uM [4, 11]: 23%
% Remaining at Each Time Point: 0 min ([5]; 0 min): 100%
remaining at 1 h, 10 uM ([5]; 60 min, read-out: % Remaining at Each Time Point: 60 min): 105%
remaining at 2 h, 10 uM ([5]; 120 min, read-out: % Remaining at Each Time Point: 120 min): 87.9%
remaining at 3 h, 10 uM ([5]; 180 min, read-out: % Remaining at Each Time Point: 180 min): 77.9%
% Remaining at Each Time Point: 0 min ([6]; 0 min): 100%
remaining at 1 h, 10 uM ([6]; pooled human plasma, 60 min, read-out: % Remaining at Each Time Point: 60 min): 106%
remaining at 2 h, 10 uM ([6]; pooled human plasma, 120 min, read-out: % Remaining at Each Time Point: 120 min): 90.8%
remaining at 3 h, 10 uM ([6]; pooled human plasma, 180 min, read-out: % Remaining at Each Time Point: 180 min): 95.8%
Substance: H-RWQEMNYIFYPR-OH [compound 210]
Free Fatty Acid Levels in Human Primary Adipocytes Expressed as a Percent of Isoproterenol Control: Percent of Control Value [1]: 75.5%
Difference from Vehicle Control: Decrease from Baseline in Blood Glucose [2]: 8.25 mg/dL
Difference from Vehicle Control: Decrease from Baseline in Body Weight (%) [2]: −3.70%
Difference from Vehicle Control: Decrease from Baseline in Fat Mass [2]: -1.45 g
